System: NCI-H1417 cells
Assay: Cell growth suppression test, CellTiter-Glo Luminescent Cell Viability Assay
Assay type: cell-based
Conditions: Homo sapiens, 240 h; NCI-H1417 cells treated for 10 days
Description: Cell growth suppression effects of the synthesized compounds on NCI-H1417 cells were identified. The cells were treated with the synthesized compounds for 10 days. Then, in order to test the cell growth suppression, CellTiter-Glo Luminescent Cell Viability Assay (available from Promega, USA) was used. This test is to measure emission signals proportional to the number of ATPs based on a fixed amount of ATPs, which represents the presence of metabolically active cells, thereby determining the number of viable cells. The results are expressed as a GI50 value. As for a control, GSK2879552 (available from GlaxoSmithKline USA) was used.

Row | GI50 [µM] | Compound
1 | 0.01 | CCO[C@H]1CCN(c2ccc(-n3nc(C(=O)N4CCC[C@@H](NC)C4)cc3-c3ccc(C#N)c(F)c3)c(F)c2)C1 [Example 71, 2-fluoro-4-(1-(2-fluoro-4-((S)-3-ethoxypyrrolidine-1-yl)phenyl)-3-((R)-3-(methylamino)piperidine-1-carbonyl)-1H-pyrazole-5-yl)benzonitrile]
2 | 0.038 | N#Cc1ccc(-c2cc(C(=O)N3CCC[C@@H](N)C3)nn2-c2ccc(N3CCC(O)C3)cc2F)cc1F (stereo partly drawn) [Example 72, 4-(3-((R)-3-aminopiperidine-1-carbonyl)-1-(2-fluoro-4-(3-hydroxypyrrolidine-1-yl)phenyl)-1H-pyrazole-5-yl)-2-fluorobenzonitrile]
3 | 0.039 | CN[C@@H]1CCCN(C(=O)c2cc(-c3ccc(C#N)c(F)c3)n(-c3ccc(N4CC[C@H](Cl)C4)cc3F)n2)C1 [Example 73, 2-fluoro-4-(1-(2-fluoro-4-((S)-3-chloropyrrolidine-1-yl)phenyl)-3-((R)-3-(methylamino)piperidine-1-carbonyl)-1H-pyrazole-5-yl)benzonitrile]
4 | 0.052 | N#Cc1ccc(-c2cc(C(=O)N3CCC[C@@H](N)C3)nn2-c2ccc(N3CCCC3)cc2Cl)cc1F [Example 75, (R)-4-(3-(3-aminopiperidine-1-carbonyl)-1-(2-chloro-4-(pyrrolidine-1-yl)phenyl)-1H-pyrazole-5-yl)-2-fluorobenzonitrile]
5 | 0.043 | COc1cc(N2CCCC2)ccc1-n1nc(C(=O)N2CCC[C@@H](N)C2)cc1-c1ccc(C#N)c(F)c1 [Example 76, (R)-4-(3-(3-aminopiperidine-1-carbonyl)-1-(2-methoxy-4-(pyrrolidine-1-yl)phenyl)-1H-pyrazole-5-yl)-2-fluorobenzonitrile]
6 | 0.119 | CC1CC(C)CN(c2ccc(-n3nc(C(=O)N4CCC[C@@H](N)C4)cc3-c3ccc(C#N)c(F)c3)c(F)c2)C1 (stereo partly drawn) [Example 82, 4-(3-((R)-3-aminopiperidine-1-carbonyl)-1-(4-(3,5-dimethylpiperidine-1-yl)-2-fluorophenyl)-1H-pyrazole-5-yl)-2-fluorobenzonitrile]
7 | 0.071 | N#Cc1ccc(-c2cc(C(=O)N3CCC[C@@H](N)C3)nn2-c2ccc(N3CCC(N4CCCCC4)CC3)cc2F)cc1F [Example 83, (R)-4-(1-(4-([1,4′-bipiperidine]-1′-yl)-2-fluorophenyl)-3-(3-aminopiperidine-1-carbonyl)-1H-pyrazole-5-yl)-2-fluorobenzonitrile]

Row | Compound | GI50 [µM]
8 | N#Cc1ccc(-c2cc(C(=O)N3CCC[C@@H](N)C3)nn2-c2c(F)cc(N3CCCC3)cc2F)cc1F [Example 74, (R)-4-(3-(3-aminopiperidine-1-carbonyl)-1-(2,6-difluoro-4-(pyrrolidine-1-yl)phenyl)-1H-pyrazole-5-yl)-2-fluorobenzonitrile] | 0.0088
9 | N#Cc1ccc(-c2cc(C(=O)N3CCC[C@@H](N)C3)nn2-c2ccc(N3CCCCC3)cc2F)cc1 [Example 77, (R)-4-(3-(3-aminopiperidine-1-carbonyl)-1-(2-fluoro-4-(piperidine-1-yl)phenyl)-1H-pyrazole-5-yl)benzonitrile] | 0.067
10 | N#Cc1ccc(-c2cc(C(=O)N3CCC[C@@H](N)C3)nn2-c2ccc(N3CCCCC3)cc2F)cc1F [Example 78, (R)-4-(3-(3-aminopiperidine-1-carbonyl)-1-(2-fluoro-4-(piperidine-1-yl)phenyl)-1H-pyrazole-5-yl)-2-fluorobenzonitrile] | 0.034
11 | N#Cc1ccc(-c2cc(C(=O)N3CCCC[C@@H](N)C3)nn2-c2ccc(N3CCCCC3)cc2F)cc1F [Example 84, (R)-4-(3-(3-aminoazepane-1-carbonyl)-1-(2-fluoro-4-(piperidine-1-yl)phenyl)-1H-pyrazole-5-yl)-2-fluorobenzonitrile] | 0.084
12 | N#Cc1ccc(-c2cc(C(=O)N3CCC[C@@H](N)C3)nn2-c2ccc3c(c2)CCC3)cc1 [Example 87, (R)-4-(3-(3-aminopiperidine-1-carbonyl)-1-(2,3-dihydro-1H-indane-5-yl)-1H-pyrazole-5-yl)benzonitrile] | 0.142
